According to a melting point compilation (Tetko et al.; mined from patent text by program, amines drawn as free bases though some values may be those of a salt):

Compound	melting point [°C]
COC(=O)COc1ccc(NC(=O)c2cc(F)cc(N3CCC(C)CC3)c2)c2ccccc12	50 to 51
COc1ccc2[nH]cc(-c3cc4c(C#N)ccnc4[nH]3)c2c1	303 to 304
Cc1cc(C)c2c(-c3ccc(C(C)C)cc3)csc2c1	83 to 84
COc1ccc2cc([C@H](C)C(=O)OCC3(C(SN=O)(C4CC4)C4CC4)CCN(C)CC3)ccc2c1	88
CC12C=CC(=O)CC1CCC1C2CCC2(C)C1CCC2(C)O (stereo not given)	140 to 142
COc1ccc(C(=O)Nc2nc(=O)c3cnn4c3n2CC=C4c2cccc(C(F)(F)F)c2)cc1	271 to 273
O=C(O)/C=C/c1ccc(OS(=O)(=O)C(F)(F)F)cc1	194
Cc1ncnn1-c1cc(F)ccc1CNC(=O)c1nc2n(c(=O)c1O)CCN2C(C)C	212
CC(C)CCC1CCCCCc2c1oc(=O)c(C(c1ccccc1)C1CC1)c2O (stereo not given)	83 to 88
N#Cc1ccc(/C=C/c2nc[nH]c2[N+](=O)[O-])cc1	> 300
CC(C)(CO)NS(=O)(=O)c1cc(NC(=O)c2cnn3c(C4CC4)cc(-c4ccc(Cl)cc4)nc23)c(Cl)s1	238 to 241
OC(=S)Cc1ccc(Cl)cc1	106
CNC(=O)C(N)C(N)=O (stereo not given)	121 to 122
CC(=O)SCC(=O)C1CCC2C3CCC4CC(O)C(N5CCOC(C)(C)C5)CC4(C)C3C(=O)CC12C (stereo not given)	181 to 182
COc1cccc2c(=O)c(C#N)c(N)oc12	300
CC(CCc1cc2cccnc2n(-c2cccc(N(C)C)c2)c1=O)c1ccncc1 (stereo not given)	148 to 154
CC(C)C(NC(=O)c1ccc(C(=O)NCc2ccc([N+](=O)[O-])cc2)cc1)C(=O)N1CCCC1C(=O)NC(C(=O)C(F)(F)F)C(C)C (mixture of isomers)	94 to 96
CCOC(=O)C1=C(C)NC(C)=C(C(=O)OCC)C1c1ccc(OCCCN(C)C)c(OC)c1	62
O=C(O)CCCCCc1nn(-c2ccccc2)c2c1CCCC2	95 to 97
CCOCCOc1ccc(-c2ccc3c(c2)C=C(C(=O)Nc2ccc(CN(C)C4CCOCC4)cc2)CCS3(=O)=O)cc1	215 to 217
O=C(c1ccccc1)N1CCc2nnc(NN=C3CCCCC3)cc2C1	188 to 191
O=Cc1cccc(COc2cccc(-c3ccsc3)c2)c1	62 to 63
Nc1ncnc2c1ncn2C1CC(C=Cc2ccccc2)C(CO)O1 (stereo not given)	215 to 217
COc1cc2c(Nc3ccc(Sc4ccccn4)cc3)c(C#N)cnc2cc1F	231 to 233
COC(=O)c1cc(N(CCBr)CCBr)c(S(C)(=O)=O)cc1[N+](=O)[O-]	161 to 162

Compound	melting point [°C]
O=C(Oc1ccccc1)N1CCC(S(=O)(=O)c2ccccc2)C1 (stereo not given)	84 to 85
Nc1ccc2ccc(N)nc2n1	222 to 223
C[C@H](NC(=O)OC(C)(C)C)C(=O)N[C@H]1CCNC1	137 to 138
CN1CCN(C(=O)c2cc([N+](=O)[O-])cc3c2OCCO3)CC1	218
CC(CCc1ccccc1)NCC(O)c1ccc(C(N)=O)s1 (stereo not given)	108 to 116
COC(=O)C1=C(C)Nc2n[nH]cc2C1c1ccccc1Cl (stereo not given)	235
CCCCCCCN(CCCCCSc1nc(-c2ccccc2)c(-c2ccccc2)[nH]1)c1ncnc2nc[nH]c12	58 to 60
Oc1cccc(CCc2cc(-c3ccccc3)n(-c3ccccc3)n2)c1	211 to 212
COc1cc(C=CC2=NN=C(C)Cc3cc(OC)c(OC)cc32)ccc1O	192 to 193
CCc1cc(NC(=O)c2nnnn2Cc2ccc(OC)cc2)c(O)c(C(C)=O)c1	140 to 142
O=S(=O)(NCCCCCCNc1nsc2nccn12)c1cccc2ccccc12	95 to 97
Clc1ccc(Nc2ncc(Sc3ccncc3)c3ccccc23)cc1	192 to 195
CC(=O)c1cnc2onc(C)c2c1Cl	63
CCC1c2cc(OC)c(OC)cc2C(C=Cc2ccc(N)cc2)=NNC1C (stereo not given)	155 to 158
CC[C@@H](Cc1ccc(OC)c(C(=O)NCc2ccc(Oc3ccc(F)c(F)c3)cc2)c1)C(=O)O	118 to 120
Cc1[nH]cnc1/C=C/C(=O)c1c(C)oc2ccccc12	166 to 168
CC(C)(C)c1cc(OCc2n[nH]c(=S)o2)cc(C(C)(C)C)c1O	195 to 196
Oc1ccccc1-c1cc(-c2ccc3c(c2)OCO3)cc(-c2ccc3ccccc3c2)n1	195 to 196
CNC(=O)C1(Nc2nc(Nc3cc4c(cc3OC)CCN(CCOC)CC4)ncc2Cl)CC1	211 to 215
CCOC(=O)Cn1cc(C(=O)OCC)c(=O)c2ccccc(=O)c21	152 to 154
CS(=O)(=O)N1C[C@H](S)C[C@H]1CSCc1ccccc1	102 to 104
Cc1cc(NC(=O)N(C)c2ccccc2)cc(C)c1S(=O)(=O)C[N+](=O)[O-]	117 to 118
CCc1nc2cnc3ccccc3c2n1CCCCNS(C)(=O)=O	166 to 168
CCCc1ccnc(C(=O)O)c1N	185 to 188
COc1ccc(N(C(=O)CN2C(=O)C(Cc3n[nH]c4ccccc34)C(=O)N(c3cccnc3)c3ccccc32)C(C)C)cc1 (single isomer, unassigned; (+))	214 to 215

Compound	melting point [°C]
C=CC(=O)c1cn(C)c2ccccc12	106 to 107
NC(=O)N(O)CCNC(=O)c1cccc(Oc2cc(Cl)cc(Cl)c2)c1	164 to 166
Cn1nc(O[C@@H]2c3cc(C(F)(F)C(F)(F)F)ccc3OC(CF)(CF)[C@H]2O)ccc1=O (relative stereo)	189 to 191
C#CCc1c(C)nc2c(OCc3c(C)cccc3NC(=O)OC)cccn12	179 to 180
O=C1CCCN1C(=O)NCCCN1CC=C(c2ccc(Cl)c(Cl)c2)CC1	136
COc1ccccc1C=CCN1CCc2nc(N)sc2CC1	80 to 84
COc1ccc(C(=O)N2CCCCC2)c(NC(=O)N[C@@H](Cc2ccc(NC(=O)c3c(Cl)cccc3Cl)cc2)C(=O)O)c1	176
Cc1ccc(Cc2cnc(NCCCN)[nH]c2=O)cn1	162 to 164
Fc1ccc(-c2cc3c(cc2Br)OCO3)cc1	86 to 87.5
N#Cc1ccc2nc(CCl)[nH]c2c1	144 to 146
Cc1c(NC(=O)c2ccc(OC[C@@H]3CCCO3)cc2F)ccc2c1cc(CNCC1CCOCC1)n2C	149
COc1ncc(Cc2n[nH]c(=O)c3ccccc23)cc1Br	227 to 228
COC(=N)c1ncn(C2OC(CO)C(O)C2O)n1 (stereo not given)	150 to 153
Cc1cc(Cl)ccc1Oc1ccc([N+](=O)[O-])cc1C#N	144 to 146
O=c1c2c(n(-c3ccccc3)c3ncccc13)CCC(O)C2 (stereo not given)	283 to 286
O=C(NCCO)/C(=C/c1ccc(C2CC2)cc1)NC(=O)c1ccc(OCCc2ccc3c(c2)OCO3)cc1	113 to 115
CC1(N2C(=O)c3cccc(NCc4cccc(Cl)c4)c3C2=O)CCC(=O)NC1=O (stereo not given)	199 to 201
CNC(=O)c1cc(Cl)cc(C)c1N	141 to 143
O=[N+]([O-])c1cc2c(cc1NCC(O)CO)OCO2 (stereo not given)	120 to 121
c1ccc(-c2ccc(OC3CN(C(c4ccccc4)c4ccccc4)C3)cc2)cc1	141 to 142
CCCc1nc2ccc(OC(F)(F)F)cc2[nH]1	88 to 90
Cc1ccc(-n2c(=O)cc(C(F)(F)F)[nH]c2=S)cc1OC(C)C	227 to 228
COc1ccc(Cc2cc(C3CCN(C(=O)c4ccccc4)CC3)nc(N)n2)cc1	170 to 171
O=CN1CCC(C(c2ccccc2)c2ccccc2)CC1	172 to 174
CCc1nc2c(N)nc3cc(/C=C/C(=O)N4CCOCC4)ccc3c2n1CC1CCOCC1	> 260

Compound	melting point [°C]
CN(C)C(=O)c1ccc(C(=O)Nc2cccc3cc(Br)cnc23)cc1	196 to 198
ClCN1C=C(Cl)C(Cl)=CN1	69 to 70
OCc1ccc(Oc2cccnc2)c(C(F)(F)F)c1	96
O=C(O)[C@H](CCc1ccccc1)Oc1ccc(-c2ccco2)cc1	140 to 142
CN1CCN(c2cc3c(c(N)c2F)c(=O)c(C(=O)O)cn3C2CC2)CC1	216 to 218
CCCCCCCCCCCCCCCCCC(=O)ON1C(=O)c2ccccc2C1=O	76 to 80
Cc1ccc(C(C#N)(Cc2c[nH]cn2)c2ccccc2)cc1 (stereo not given)	188 to 193
Cc1ccccc1N(CN1C(=O)CSC1=O)C(=O)CCl	133 to 136
CO/N=C(/C(N)=O)c1ccccc1COc1cc(C)ccc1C	122
O=c1cc(C(F)(F)F)[nH]c(=O)n1Cc1cc(Cl)cc(Cl)c1Cl	199 to 202
Cc1c(C)c2c(c(C)c1Br)CC(C)(CBr)O2 (stereo not given)	60 to 61
CC1OC(=O)N(c2nc(-c3ccc(C#N)cc3)cs2)C1(C)C (stereo not given)	166 to 167
CC(=O)Nc1cccc(Oc2ccn3nc(-c4ccccc4)c(-c4ccc(=O)n(C(C)C)n4)c3c2)c1	178
CN1CCC(c2c[nH]c3ccc(NC(=O)c4cccc(F)c4)nc23)CC1	129 to 130
COc1ccc(-c2cn3ccc(C)cc3n2)cc1	157 to 160
Cc1c(C(=O)Nc2ccc(N3CCN(C4CCOCC4)CC3)c(C#N)c2)cnn1-c1ccc(C(F)(F)F)cc1	274
COCC(C)Nc1cc(-c2ccnc(Nc3cccc(Cl)c3)n2)cc(Cl)n1 (stereo not given)	128 to 129
CCCCCCCCCCOc1ccc2c(=O)c3cccc(C(=O)OCC)c3oc2c1CCC(=O)OCC	69 to 70
O=C(NCC1CCN(CC2(C(=O)O)CCC2)CC1)N1C(=O)C2(CCCC2)c2ccc(F)cc21	150
O=c1oc2cc(O)c(O)cc2c(O)c1C1=CCOc2oc3ccccc3c(=O)c21	258 to 260
CN1CCC(c2c[nH]c3cnc(-n4cncn4)cc23)CC1	209 to 211
OCC(O)Cc1ncc[nH]1 (stereo not given)	98 to 100
Cc1ccc(S(=O)(=O)C(CCCCCOc2ccc(Cl)cc2)C(=O)O)cc1 (stereo not given)	88 to 90
CCc1cc2c3c(ccc2[nH]1)OCC(CN1CC=C(c2c[nH]c4ccc(F)cc24)CC1)O3 (stereo not given)	81 to 82
Cc1nc(C)c(-c2ccnc(Nc3ccc(Cl)c(CO)c3)n2)s1	245 to 246
